Each block holds one molecule with its values, some of them ahead of it.
Assays:
U-251 = test: Inhibition of human PARP expressed in U-251 cells at 3 uM relative to control; assay type: cell-based
[1] = biological target: T1, Poly [ADP-ribose] polymerase 1 (Homo sapiens, UniProt P09874); test: Inhibition of PARP-1 (unknown origin) assessed as inhibition constant
[2] = biological target: T2, Poly [ADP-ribose] polymerase 2 (Homo sapiens, UniProt Q9UGN5); test: Inhibition of PARP-2 (unknown origin)
[3] = biological target: T2, Poly [ADP-ribose] polymerase 2; test: Inhibition of human PARP-2 incubated for 18 to 20 hrs by scintillation proximity assay
[4] = biological target: T1, Poly [ADP-ribose] polymerase 1; test: Inhibition of PARP-1 (unknown origin)
[5] = biological target: T1, Poly [ADP-ribose] polymerase 1; test: Inhibition of human PARP-1
[6] = biological target: Poly [ADP-ribose] polymerase 1 (Bos taurus, UniProt P18493); test: Inhibition of calf thymus PARP-1
[7] = Inhibition of calf thymus […]; design: species or system Bos taurus
[8] = biological target: T1, Poly [ADP-ribose] polymerase 1; test: Inhibition of human PARP-1 using histone as substrate incubated for 16 hrs by ELISA assay
Homo sapiens = species on record: Homo sapiens; test: Selectivity index, ratio of IC50 of human PARP-1 to IC50 of human PARP-2
[9] = biological target: Poly [ADP-ribose] polymerase 1 (Mus musculus, UniProt P11103); test: Inhibition of mouse recombinant PARP-1 incubated for 60 mins
[10] = Oral bioavailability in rat; assay type: ADME, organism-based; settings: in vivo
[11] = Half life in rat; assay type: ADME; settings: in vivo

T1 sequence (P09874 whole entry): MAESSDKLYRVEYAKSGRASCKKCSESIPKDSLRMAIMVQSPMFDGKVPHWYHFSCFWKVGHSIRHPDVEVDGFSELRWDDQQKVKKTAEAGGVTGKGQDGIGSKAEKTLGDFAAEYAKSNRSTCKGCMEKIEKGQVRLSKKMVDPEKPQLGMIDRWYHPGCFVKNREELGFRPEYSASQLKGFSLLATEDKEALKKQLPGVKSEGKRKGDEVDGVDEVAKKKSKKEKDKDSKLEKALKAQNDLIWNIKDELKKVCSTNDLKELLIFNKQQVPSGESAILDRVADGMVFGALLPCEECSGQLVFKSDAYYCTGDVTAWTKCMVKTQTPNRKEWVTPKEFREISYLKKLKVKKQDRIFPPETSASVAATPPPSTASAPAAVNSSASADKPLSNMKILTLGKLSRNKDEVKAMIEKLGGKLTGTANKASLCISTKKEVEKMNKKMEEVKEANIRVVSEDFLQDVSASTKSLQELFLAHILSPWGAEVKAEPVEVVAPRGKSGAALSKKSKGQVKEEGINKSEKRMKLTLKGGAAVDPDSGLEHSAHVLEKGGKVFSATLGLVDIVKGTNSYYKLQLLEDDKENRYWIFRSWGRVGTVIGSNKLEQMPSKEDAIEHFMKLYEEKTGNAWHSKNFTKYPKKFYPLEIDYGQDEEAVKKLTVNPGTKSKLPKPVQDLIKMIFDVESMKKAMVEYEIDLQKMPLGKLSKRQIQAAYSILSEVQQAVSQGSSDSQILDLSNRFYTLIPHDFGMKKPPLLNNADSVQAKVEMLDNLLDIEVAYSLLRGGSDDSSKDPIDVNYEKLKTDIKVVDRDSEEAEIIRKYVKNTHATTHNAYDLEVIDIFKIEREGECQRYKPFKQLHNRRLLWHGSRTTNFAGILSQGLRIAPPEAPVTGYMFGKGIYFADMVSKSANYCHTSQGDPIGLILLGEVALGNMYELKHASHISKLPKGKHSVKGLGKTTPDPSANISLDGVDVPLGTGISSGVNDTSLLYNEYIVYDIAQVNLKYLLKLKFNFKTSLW
T2 sequence (Q9UGN5 whole entry): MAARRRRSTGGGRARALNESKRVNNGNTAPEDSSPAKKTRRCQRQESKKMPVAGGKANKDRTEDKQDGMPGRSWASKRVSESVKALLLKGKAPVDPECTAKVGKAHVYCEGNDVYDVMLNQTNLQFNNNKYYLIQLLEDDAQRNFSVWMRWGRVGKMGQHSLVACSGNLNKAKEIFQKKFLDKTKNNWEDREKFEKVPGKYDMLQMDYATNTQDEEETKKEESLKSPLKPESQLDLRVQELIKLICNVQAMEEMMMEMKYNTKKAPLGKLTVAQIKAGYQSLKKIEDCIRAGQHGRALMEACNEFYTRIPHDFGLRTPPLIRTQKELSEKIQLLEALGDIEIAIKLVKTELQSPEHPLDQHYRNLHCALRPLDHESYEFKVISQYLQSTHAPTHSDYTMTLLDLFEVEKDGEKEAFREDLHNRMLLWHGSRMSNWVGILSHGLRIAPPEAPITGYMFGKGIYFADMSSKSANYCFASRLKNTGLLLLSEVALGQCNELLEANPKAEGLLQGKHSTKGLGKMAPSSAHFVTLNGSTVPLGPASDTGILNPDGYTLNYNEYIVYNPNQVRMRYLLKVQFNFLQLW
Sequence of Poly [ADP-ribose] polymerase 1 (Bos taurus, UniProt P18493) (P18493 whole entry): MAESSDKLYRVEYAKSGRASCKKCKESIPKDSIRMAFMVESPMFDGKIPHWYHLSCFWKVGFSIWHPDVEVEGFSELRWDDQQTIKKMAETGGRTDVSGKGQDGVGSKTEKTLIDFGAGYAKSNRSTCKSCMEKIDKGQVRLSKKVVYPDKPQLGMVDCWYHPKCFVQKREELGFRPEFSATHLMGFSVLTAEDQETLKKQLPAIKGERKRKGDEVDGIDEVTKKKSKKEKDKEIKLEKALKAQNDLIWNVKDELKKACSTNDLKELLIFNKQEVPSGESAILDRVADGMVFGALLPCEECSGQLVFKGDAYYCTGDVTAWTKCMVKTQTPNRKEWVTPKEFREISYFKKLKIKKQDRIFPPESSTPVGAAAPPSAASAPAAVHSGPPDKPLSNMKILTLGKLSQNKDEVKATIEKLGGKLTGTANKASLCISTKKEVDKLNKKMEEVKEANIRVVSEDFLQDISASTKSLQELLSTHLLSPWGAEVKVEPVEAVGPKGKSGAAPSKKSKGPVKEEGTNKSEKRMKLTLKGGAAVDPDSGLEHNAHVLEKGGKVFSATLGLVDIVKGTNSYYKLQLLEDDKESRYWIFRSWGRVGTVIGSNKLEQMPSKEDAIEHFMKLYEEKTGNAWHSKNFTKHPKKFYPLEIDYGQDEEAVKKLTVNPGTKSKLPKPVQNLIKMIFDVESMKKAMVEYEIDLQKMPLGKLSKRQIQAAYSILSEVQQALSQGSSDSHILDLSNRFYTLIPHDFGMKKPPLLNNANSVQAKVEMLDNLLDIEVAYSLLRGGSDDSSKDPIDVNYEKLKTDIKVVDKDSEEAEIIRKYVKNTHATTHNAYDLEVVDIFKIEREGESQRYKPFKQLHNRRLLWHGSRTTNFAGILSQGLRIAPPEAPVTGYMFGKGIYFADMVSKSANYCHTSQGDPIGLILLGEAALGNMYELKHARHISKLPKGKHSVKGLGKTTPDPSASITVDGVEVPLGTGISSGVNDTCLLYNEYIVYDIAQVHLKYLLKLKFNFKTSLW
Sequence of Poly [ADP-ribose] polymerase 1 (Mus musculus, UniProt P11103) (P11103 whole entry): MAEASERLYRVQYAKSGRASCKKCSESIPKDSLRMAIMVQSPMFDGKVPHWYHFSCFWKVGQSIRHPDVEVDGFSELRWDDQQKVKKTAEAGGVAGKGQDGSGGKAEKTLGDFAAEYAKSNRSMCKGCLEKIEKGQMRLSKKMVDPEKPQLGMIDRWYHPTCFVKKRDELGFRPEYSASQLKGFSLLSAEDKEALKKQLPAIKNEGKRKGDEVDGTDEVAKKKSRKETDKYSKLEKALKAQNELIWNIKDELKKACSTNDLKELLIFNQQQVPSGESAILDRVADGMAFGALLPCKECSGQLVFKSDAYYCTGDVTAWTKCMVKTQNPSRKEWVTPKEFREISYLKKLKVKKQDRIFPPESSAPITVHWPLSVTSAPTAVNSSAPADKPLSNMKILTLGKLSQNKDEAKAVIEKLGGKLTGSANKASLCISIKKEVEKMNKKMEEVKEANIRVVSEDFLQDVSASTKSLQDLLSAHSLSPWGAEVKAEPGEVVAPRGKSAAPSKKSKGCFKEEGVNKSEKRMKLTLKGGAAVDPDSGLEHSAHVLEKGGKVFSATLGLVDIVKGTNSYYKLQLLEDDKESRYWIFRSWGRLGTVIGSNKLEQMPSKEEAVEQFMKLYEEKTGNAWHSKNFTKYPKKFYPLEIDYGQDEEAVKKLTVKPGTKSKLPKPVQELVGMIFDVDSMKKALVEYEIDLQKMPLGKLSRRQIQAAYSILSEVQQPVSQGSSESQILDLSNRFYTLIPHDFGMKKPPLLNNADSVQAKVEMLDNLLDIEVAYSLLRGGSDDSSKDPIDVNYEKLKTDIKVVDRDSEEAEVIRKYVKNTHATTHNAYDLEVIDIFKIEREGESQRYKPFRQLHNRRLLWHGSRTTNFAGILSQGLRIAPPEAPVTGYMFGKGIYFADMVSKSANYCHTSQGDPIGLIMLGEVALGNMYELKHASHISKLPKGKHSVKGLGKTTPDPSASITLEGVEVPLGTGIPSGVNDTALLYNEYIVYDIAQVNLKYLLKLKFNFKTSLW

Ki [1]: 50 nM
Compound: O=c1[nH]nc2c3c(cccc13)Oc1ccc(CN3CCC(O)CC3)cc1-2 [E-7016]
inhibition (U-251): 84%

IC50 [2]: 0.11 nM
Compound: C[C@]12CCCN1CC1=NNC(=O)c3cc(F)cc4[nH]c2c1c34 [PAMIPARIB]

IC50 [3]: 4000 nM
Compound: Cn1cccc1/C=C1\C(=O)NC(=O)c2ccccc21

IC50 [4]: 20 nM
IC50 [2]: 6 nM
Compound: COc1cccc2[nH]c3c4c(c5c(c3c12)C(=O)N(CN1CCN(C)CC1)C5=O)CCC4 [CEP-9722]

IC50 [5]: 100000 nM
Compound: NC(=O)c1ccc(I)c([N+](=O)[O-])c1 [INIPARIB]

Compound: Cc1cccc2c(=O)[nH]c(CCCN3CC=C(c4ccc(F)cc4)CC3)nc12
IC50 [6]: 16 nM
IC50 [7]: 167 nM

IC50 [8]: 1.29 nM
Ratio IC50 (Homo sapiens): 8
Compound: CC(C)(C)[Si](C)(C)OCCCN1CCN(C(=O)c2cc(Cn3c(=O)[nH]c(=O)c4ccccc43)ccc2F)CC1=O

IC50 [9]: 1500 nM
Compound: O=C(Nc1cccc2c(=O)[nH]ccc12)c1ccccc1

bioavailability [10]: > 40%
t1/2 [11]: 40 h
Compound: Cn1ncnc1[C@H]1c2n[nH]c(=O)c3cc(F)cc(c23)N[C@@H]1c1ccc(F)cc1 [TALAZOPARIB]

From ChEMBL document CHEMBL5252527, “An Update on Poly(ADP-ribose)polymerase-1 (PARP-1) Inhibitors: Opportunities and Challenges in Cancer Therapy” (J Med Chem, 2016)
